Data as given in patent US6099857A, “Cell membrane fusion composition and method” (Washington University, priority 1998, dated 2000).
Each block holds one molecule with its values, some of them ahead of it.

Experiments:
[1] = target: T1, GAPDH isoform (membrane fusion protein) (Oryctolagus cuniculus, UniProt P46406); test: Protein-catalyzed membrane fusion of physiologically-modeled SUVs (R18, stopped flow); type: biochemical, rabbit; conditions: for inhibition of membrane fusion activity: GAPDH isoform-catalyzed fusion of physiologically-modeled SUVs
T1 construct: from tissue; host or cells: rabbit brain (cytosol; DE-52 void volume, HiLoad SP Sepharose, GTP-agarose and Mono Q fractions)
Method: Rabbit brain cytosol was prepared and loaded onto a previously equilibrated DE-52 column. The column was developed with a linear NaCl gradient (0-400 Mm NaCl) and column eluents were assayed for their ability to catalyze membrane fusion utilizing physiologically-modeled small unilamellar vesicles (SUVs) as described in "Materials and Methods". Vesicles were comprised of 16:0-18:1 phosphatidylcholine (27%), 16:0-18:1 phosphatidylserine (6%), cholesterol (40%) and 27% of each of the following ethanolamine glycerophospholipids: 18:0-20:4 plasmenylethanolamine; 16:0-18:1 plasmenylethanolamine; 18:0-20:4 phosphatidylethanolamine; or 16:0-18:1 phosphatidylethanolamine . (----), uv absorbance at 280 nm; (----), NaCl gradient.
Physiologically-modeled SUVs were prepared (concentration=200 μM). The other chamber contained the Pi3 /NAD^+ eluent from GTP-agarose chromatography (0.004 mg/ml) which was previously incubated with (D)-glyceraldehyde 3-phosphate at the indicated concentrations for 30 seconds at 37° C. The rates of membrane fusion from four separate determinations of two preparations were averaged and expressed as a percentage of maximum fusion.
Physiologically-modeled small unilamellar vesicles consisting of 16:0-18:1 phosphatidylcholine (27%), ethanolamine glycerophospholipid (27%), 16:0-18:1 phosphatidylserine (6%) and cholesterol (40%) were prepared (final lipid concentration of 200 μM) and placed in one chamber of a stopped-flow apparatus. Aliquots of the HiLoad SP Sepharose column eluent (protein concentration=0.002 mg/ml) were placed in the other chamber, samples were rapidly mixed in a stopped flow apparatus and membrane fusion was quantified. Ethanolamine glycerophospholipids included 100% plasmenyl ethanolamine (A) 75% plasmenyl ethanolamine and 25% PE (B); 50% plasmenyl ethanolamine and 50% PE (C); and 25% plasmenyl ethanolamine and 75% PE (D;
Vesicles were composed of 16:0-18:1 PC/18:0-20:4 plasmenyl ethanolamine/cholesterol (27/27/40 mole percent) and varying mole percentages of phosphatidylserine (6% phosphatidylserine (A), 12% phosphatidylserine (B), 3% phosphatidylserine (C) or 0% phosphatidylserine (D)).
Physiologically-modeled SUVs containing phosphatidylcholine/18:0-20:4 plasmenylethanolamine/phosphatidylserine (45/45/10 mole ratio) and selected mole percentages of cholesterol (i.e., 40% cholesterol (A), 20% cholesterol (B), or 0% cholesterol (C)) were placed in one chamber of a stopped-flow apparatus. The other chamber contained aliquots of the active fraction from GTP-agarose chromatography (i.e., 20 mM tripolyphosphate/10 mM NAD^+ (Pi3 /NAD^+)), at a protein concentration of 0.004 mg/ml. Samples were rapidly mixed and membrane fusion was quantified. Results represent the average of six recordings from two independent preparations expressed as a percentage of maximal fusion.
The isolation of a GAPDH isoform that has been discovered to catalyze vesicle fusion, in accordance with the invention, is described in Example 5. Briefly, a […] homogenate was centrifuged at high speed to produce a cytosol. Dialyzed cytosol was fractionated on a DE-52 column, and the fractions were assayed in a vesicle fusion assay. The lipid vesicles that were used in the assay were composed of 27 mole percent of […], 6 mole percent PS, 40 mole percent cholesterol, and 27 mole percent […]. These vesicles show little measurable self-fusion activity, as evidenced by change in fluorescence in an R18 assay (half of the vesicles labeled with R18). […] The reasons underlying the cryptic nature of this activity in crude cytosol have been elaborated, showing that the cytosol contains a potent endogenous protein inhibitor of fusion activity. […]

GAPDH = target: T2, GAPDH (Oryctolagus cuniculus, UniProt P46406); test: Glyceraldehyde 3-phosphate dehydrogenase activity (spectrophotometric, NADH); type: biochemical, rabbit
T2 construct: Column eluents were assayed for GAPDH activity and membrane fusion activity; from tissue; host or cells: rabbit brain (column eluents of the purification)
Method: The activity of GAPDH was measured spectrophotometrically utilizing modifications of the methods of Cori, .backslash.at al. (1948) and Steck, et al. (1973). Briefly, sample was added to a 1 cm path-length semi-micro cuvette containing 50 mM triethanolamine (pH 7-6), sodium arsenate (50 mM) (pH 8.8), 2.4 mM glutathione (reduced), 0.5 mM NAD, and water in a final volume of 990 .backslash.pl. After establishing a baseline (1 min), the reaction was initiated with 10 μl of 10 mM D-glyceraldehyde 3-phosphate (prepared according to Sigma product bulletin G-8007) and absorbance at 340 nm was measured for 5 minutes. Units of GAPDH activity represent the mass (μmol) of D-glyceraldehyde 3-phosphate converted per minute. The mass of NADH generated was calculated utilizing ε=[…].

[2] = R18 assay of calcium-induced fusion of SUVs of ternary PS/PC/ethanolamine glycerophospholipid mixtures
[3] = NBD-PE/Rh-PE lipid-mixing fusion assay with PS SUVs; conditions: equal molar mixture with PC; NBD-PE dequenching
Method: In the NBD-PE/Rh-PE assay detailed in Example 2B, NBD-PE (N-(7-nitrobenz-2-oxa-1,3-diazol-4-yl)-1,2-dihexadecanoyl-sn-glycerol-3-phosphoethanolamine), and Rh-PE are incorporated into PS SUV's and the vesicles are mixed with test vesicles. Vesicle fusion is followed by the change in fluorescence emission at 530 nm, after […] at 464 nm.
This assay was performed by preparing phosphatidylserine SUVs containing 1.8% Rh-PE and 1.2% NBD-PE and adding an equimolar amount of unlabelled PC/PE vesicles pursuant to (Struck, et al. (1981); and Hoekstra, 1982). Fusion was monitored by NBD-PE fluorescence at 530 nm after excitation at 464 nm. The 100% fusion level was assessed by preparing lipid vesicles composed of 46.5% PS, 25% PC, 25% PE, 0.9% Rh-PE, and 0.6% NBD-PE and subsequently quantifying fluorescence intensity.
Since Rh-PE partially quenches NBD-PE fluorescence by resonance energy transfer at the initial concentrations used in these experiments, membrane fusion results in an increase in NBD-PE fluorescence as available membrane surface area increases.
To verify the results obtained with the R18 fusion assay, a second lipid-mixing assay utilizing NBD-PE and Rh-PE was used. […]

[4] = Breakdown of lipids in vesicles during fusion studies (TLC, straight-phase HPLC, 3H label); type: physicochemical; conditions: within the time frame of the assay
Text: To verify the differences in observed fusion rates were not due to selective breakdown of one subclass of ethanolamine glycerophospholipid, aliquots of lipid vesicles employed in the fusion studies were extracted by the method of Bligh and Dyer and analyzed by TLC and straight-phase HPLC. No lysophospholipids or other contaminants were detected within the time frame of the assay. For higher sensitivity detection, 16:0-18:1 plasmenyl ethanolamine was synthesized with a ^3 H label on the sn-2 oleoyl group. This label was added to a liposome preparation containing unlabeled PC and PE.

T1 sequence (P46406 2-333 limits assumed): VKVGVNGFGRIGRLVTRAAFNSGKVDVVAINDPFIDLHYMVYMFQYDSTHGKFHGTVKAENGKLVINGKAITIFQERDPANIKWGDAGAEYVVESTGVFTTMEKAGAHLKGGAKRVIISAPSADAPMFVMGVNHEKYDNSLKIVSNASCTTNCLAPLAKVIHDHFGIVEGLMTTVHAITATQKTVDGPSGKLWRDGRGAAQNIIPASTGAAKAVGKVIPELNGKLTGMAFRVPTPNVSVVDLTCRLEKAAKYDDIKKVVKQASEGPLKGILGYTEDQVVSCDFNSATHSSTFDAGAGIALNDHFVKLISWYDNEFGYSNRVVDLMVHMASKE
T2 sequence (P46406 2-333 limits assumed): as above

Molecule: O=C[C@H](O)COP(=O)(O)O [D-glyceraldehyde 3-phosphate]
inhibition of membrane fusion activity [1]: inhibited

Molecule: O=C(O)c1cc(SSc2ccc([N+](=O)[O-])c(C(=O)O)c2)ccc1[N+](=O)[O-] [DTNB]
inactivation of membrane fusion-catalyzing activity ([1]; 1 mM for 30 minutes at 37° C., void volume activity): inactivated

Molecule: CCN1C(=O)C=CC1=O [N-ethylmaleimide]
inhibition of membrane fusion-catalyzing activity ([1]; 1 mM for 60 minutes at 37° C., void volume activity): not inhibited

Molecule: CCCCCCCC/C=C\CCCCCCCC(=O)O[C@H](CO/C=C\CCCCCCCCCCCCCC)COP(=O)(O)OCCN [16:0-18:1 plasmenyl ethanolamine]
initial rate of membrane fusion relative to vesicles with 16:0-18:1 phosphatidylethanolamine ([2]; 45% PC/45% PE/10% PS vesicles): significantly greater
fusogenicity relative to vesicles containing 16:0-18:1 phosphatidylethanolamine ([2]; POPS/POPC/ethanolamine glycerophospholipid (1:1:1) SUVs): six times more fusogenic
rate of fusion to PS SUVs relative to PC/16:0-18:1 phosphatidylethanolamine vesicles [3]: three times more rapidly
breakdown of lipid during the fusion procedures [4]: No significant generation of radiolabeled fatty acid or lysophospholipid

More lines, now with the values ahead:

time for catalyzed fusion of one pair of vesicles (on average) ([1]; calculated, protein 4 μg/ml, assumes ≈1000 lipid molecules per vesicle and tetramer): 1 ms
selectivity of membrane fusion activity for vesicles containing plasmenylethanolamine compared with phosphatidylethanolamine ([1]; each stage of the purification procedure): highly selective
Molecule: GAPDH isoform: 38 kDa isoform of glyceraldehyde-3-phosphate dehydrogenase purified from rabbit brain cytosol that catalyzes vesicle fusion

inhibition of GAPDH enzyme activity (GAPDH): maximally inhibited
inhibition of membrane fusion activity [1]: failed to inhibit
Molecule: CC(C)[C@H]1CC[C@@]2(CO2)[C@H]2C(=O)OCC(C(=O)O)=C[C@H]12 [Koningic acid]
